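Grown in 96-well plates, cells were treated for 48 hours with each compound at five concentrations. Insufficient inhibition: endpoint recorded as highest concentration tested. GI50 = concentration required for 50% inhibition of growth. TGI: concentration producing complete growth inhibition.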
Tests used:
Assay in all cases: NCI anticancer screen, dose series, 48 h
[1] = tested on: SNB-75 CNS
[2] = tested on: RPMI-8226 leukemia
[3] = tested on: SK-MEL-2 melanoma
[4] = tested on: OVCAR-4 ovarian
[5] = tested on: 786-0 renal
[6] = tested on: LOX IMVI melanoma
[7] = tested on: A498 renal
[8] = tested on: NCI-H226 lung
[9] = tested on: MCF7 breast
[10] = tested on: T-47D breast
[11] = tested on: MALME-3M melanoma
[12] = tested on: UO-31 renal
[13] = tested on: NCI-H522 lung
[14] = tested on: SK-OV-3 ovarian
[15] = tested on: HCT-15 colon
[16] = tested on: U251 CNS
[17] = tested on: SF-295 CNS
[18] = tested on: MDA-MB-435
[19] = tested on: HOP-92 NSCLC
[20] = tested on: SK-MEL-5 melanoma
[21] = tested on: SF-539 CNS
[22] = tested on: BT-549 breast
[23] = tested on: HL-60(TB) leukemia
[24] = tested on: SF-268 CNS
[25] = tested on: A549 NSCLC
[26] = tested on: HOP-62 NSCLC
[27] = tested on: SR leukemia
[28] = tested on: MOLT-4 leukemia
[29] = tested on: SNB-19 CNS
[30] = tested on: CAKI-1 renal
[31] = tested on: HT29 colon
[32] = tested on: TK-10 renal
[33] = tested on: HCT-116 colon
[34] = tested on: NCI-H460 lung
[35] = tested on: NCI/ADR-RES ovarian
[36] = tested on: SW-620 colon
[37] = tested on: M14 melanoma
[38] = tested on: OVCAR-8 ovarian
[39] = tested on: RXF 393 renal
[40] = tested on: DU-145 prostate
[41] = tested on: COLO 205 colon
[42] = tested on: MDA-MB-231 breast
[43] = tested on: EKVX NSCLC
[44] = tested on: HS 578T breast
[45] = tested on: ACHN renal
[46] = tested on: HCC-2998 colon
[47] = tested on: SN12C renal
[48] = tested on: K-562 leukemia
[49] = tested on: OVCAR-5 ovarian
[50] = tested on: OVCAR-3 ovarian
[51] = tested on: NCI-H23 lung
[52] = tested on: IGROV1 ovarian
[53] = tested on: PC-3 prostate
[54] = tested on: KM12 colon
[55] = tested on: CCRF-CEM leukemia

Question: How did the GI50 [1] turn out when `CO[C@H](C(=O)[C@@H](O)[C@@H](C)O)[C@@H]1Cc2cc3cc(O[C@H]4C[C@@H](O[C@H]5C[C@@H](O)[C@H](O)C(C)O5)[C@H](O)C(C)(O)O4)cc(O)c3c(O)c2C(=O)[C@H]1O[C@H]1C[C@@H](O[C@H]2C[C@@H](O[C@H]3C[C@@H](OC)[C@H](O)C(C)O3)[C@@H](O)C(C)O2)[C@H](O)C(C)O1` (stereo not given in full) was run?
Answer: The GI50 was 63 nM.

Question: What about the TGI [1] of the same molecule?
Answer: Its TGI is 6840 nM.

Question: What about the GI50 [2] of the same molecule?
Answer: The GI50 was 833 nM.

Question: And the TGI [2]?
Answer: Its TGI is > 16800 nM.

Question: What about the GI50 [3] of the same molecule?
Answer: Its GI50 is 704 nM.

Question: And the TGI [3]?
Answer: Its TGI is 5180 nM.

Question: And the GI50 [4]?
Answer: Its GI50 is 1350 nM.

Question: What about the TGI [4] of the same molecule?
Answer: The TGI was > 16800 nM.

Question: And the GI50 [5]?
Answer: Its GI50 is 1510 nM.

Question: What about the TGI [5] of the same molecule?
Answer: The TGI was > 16800 nM.

Question: And the GI50 [6]?
Answer: The GI50 was 384 nM.

Question: And the TGI [6]?
Answer: The TGI was > 16800 nM.

Question: And the GI50 [7]?
Answer: Its GI50 is 369 nM.

Question: And the TGI [7]?
Answer: Its TGI is 1290 nM.

Question: What about the GI50 [8] of the same molecule?
Answer: Its GI50 is 796 nM.

Question: And the TGI [8]?
Answer: Its TGI is 5340 nM.

Question: And the GI50 [9]?
Answer: The GI50 was 185 nM.

Question: And the TGI [9]?
Answer: The TGI was > 16800 nM.

Question: What about the GI50 [10] of the same molecule?
Answer: The GI50 was 447 nM.

Question: What about the TGI [10] of the same molecule?
Answer: Its TGI is > 16800 nM.

Question: And the GI50 [11]?
Answer: Its GI50 is 212 nM.

Question: And the TGI [11]?
Answer: The TGI was 14000 nM.

Question: What about the GI50 [12] of the same molecule?
Answer: Its GI50 is 4060 nM.

Question: What about the TGI [12] of the same molecule?
Answer: Its TGI is > 16800 nM.

Question: And the GI50 [13]?
Answer: The GI50 was 354 nM.

Question: And the TGI [13]?
Answer: Its TGI is 14800 nM.

Question: And the GI50 [14]?
Answer: Its GI50 is 671 nM.

Question: And the TGI [14]?
Answer: The TGI was > 16800 nM.

Question: And the GI50 [15]?
Answer: The GI50 was > 16800 nM.

Question: What about the TGI [15] of the same molecule?
Answer: The TGI was > 16800 nM.

Question: And the GI50 [16]?
Answer: Its GI50 is 387 nM.

Question: What about the TGI [16] of the same molecule?
Answer: Its TGI is > 16800 nM.

Question: What about the GI50 [17] of the same molecule?
Answer: The GI50 was 666 nM.

Question: And the TGI [17]?
Answer: The TGI was > 16800 nM.

Question: And the GI50 [18]?
Answer: The GI50 was 895 nM.

Question: What about the TGI [18] of the same molecule?
Answer: Its TGI is > 16800 nM.

Question: And the GI50 [19]?
Answer: Its GI50 is 528 nM.

Question: What about the TGI [19] of the same molecule?
Answer: The TGI was 8660 nM.

Question: What about the GI50 [20] of the same molecule?
Answer: Its GI50 is 509 nM.

Question: What about the TGI [20] of the same molecule?
Answer: Its TGI is 2970 nM.

Question: What about the GI50 [21] of the same molecule?
Answer: Its GI50 is 658 nM.

Question: And the TGI [21]?
Answer: The TGI was 12200 nM.

Question: What about the GI50 [22] of the same molecule?
Answer: The GI50 was 2040 nM.

Question: What about the TGI [22] of the same molecule?
Answer: The TGI was > 16800 nM.

Question: And the GI50 [23]?
Answer: Its GI50 is 11200 nM.

Question: And the TGI [23]?
Answer: The TGI was > 16800 nM.

Question: What about the GI50 [24] of the same molecule?
Answer: The GI50 was 726 nM.

Question: And the TGI [24]?
Answer: Its TGI is > 16800 nM.

Question: What about the GI50 [25] of the same molecule?
Answer: The GI50 was 828 nM.

Question: What about the TGI [25] of the same molecule?
Answer: The TGI was > 16800 nM.

Question: And the GI50 [26]?
Answer: The GI50 was 521 nM.

Question: And the TGI [26]?
Answer: Its TGI is > 16800 nM.

Question: And the GI50 [27]?
Answer: Its GI50 is 250 nM.

Question: And the TGI [27]?
Answer: Its TGI is > 16800 nM.

Question: And the GI50 [28]?
Answer: Its GI50 is 1200 nM.

Question: What about the TGI [28] of the same molecule?
Answer: Its TGI is > 16800 nM.

Question: And the GI50 [29]?
Answer: The GI50 was 761 nM.

Question: And the TGI [29]?
Answer: Its TGI is > 16800 nM.

Question: And the GI50 [30]?
Answer: Its GI50 is > 16800 nM.

Question: And the TGI [30]?
Answer: The TGI was > 16800 nM.

Question: And the GI50 [31]?
Answer: The GI50 was 1160 nM.

Question: And the TGI [31]?
Answer: The TGI was > 16800 nM.

Question: What about the GI50 [32] of the same molecule?
Answer: Its GI50 is 2800 nM.

Question: What about the TGI [32] of the same molecule?
Answer: Its TGI is > 16800 nM.

Question: What about the GI50 [33] of the same molecule?
Answer: The GI50 was 542 nM.

Question: And the TGI [33]?
Answer: Its TGI is > 16800 nM.

Question: And the GI50 [34]?
Answer: Its GI50 is 469 nM.

Question: And the TGI [34]?
Answer: The TGI was > 16800 nM.

Question: What about the GI50 [35] of the same molecule?
Answer: The GI50 was > 16800 nM.

Question: And the TGI [35]?
Answer: The TGI was > 16800 nM.

Question: What about the GI50 [36] of the same molecule?
Answer: The GI50 was 1310 nM.

Question: What about the TGI [36] of the same molecule?
Answer: The TGI was > 16800 nM.

Question: And the GI50 [37]?
Answer: Its GI50 is 2560 nM.

Question: And the TGI [37]?
Answer: The TGI was > 16800 nM.

Question: What about the GI50 [38] of the same molecule?
Answer: The GI50 was 1550 nM.

Question: What about the TGI [38] of the same molecule?
Answer: The TGI was > 16800 nM.

Question: And the GI50 [39]?
Answer: The GI50 was 1270 nM.

Question: What about the TGI [39] of the same molecule?
Answer: Its TGI is 7940 nM.

Question: What about the GI50 [40] of the same molecule?
Answer: The GI50 was 976 nM.

Question: What about the TGI [40] of the same molecule?
Answer: The TGI was > 16800 nM.

Question: And the GI50 [41]?
Answer: Its GI50 is 720 nM.

Question: What about the TGI [41] of the same molecule?
Answer: The TGI was 4940 nM.

Question: And the GI50 [42]?
Answer: The GI50 was 1890 nM.

Question: And the TGI [42]?
Answer: The TGI was > 16800 nM.

Question: And the GI50 [43]?
Answer: The GI50 was 1500 nM.

Question: And the TGI [43]?
Answer: The TGI was > 16800 nM.

Question: What about the GI50 [44] of the same molecule?
Answer: Its GI50 is 708 nM.

Question: What about the TGI [44] of the same molecule?
Answer: The TGI was > 16800 nM.

Question: And the GI50 [45]?
Answer: Its GI50 is 3680 nM.

Question: And the TGI [45]?
Answer: Its TGI is > 16800 nM.

Question: And the GI50 [46]?
Answer: The GI50 was 1920 nM.

Question: And the TGI [46]?
Answer: The TGI was > 16800 nM.

Question: And the GI50 [47]?
Answer: Its GI50 is 868 nM.

Question: And the TGI [47]?
Answer: Its TGI is > 16800 nM.

Question: And the GI50 [48]?
Answer: Its GI50 is 951 nM.

Question: What about the TGI [48] of the same molecule?
Answer: The TGI was > 16800 nM.

Question: And the GI50 [49]?
Answer: Its GI50 is 2950 nM.

Question: And the TGI [49]?
Answer: Its TGI is > 16800 nM.

Question: What about the GI50 [50] of the same molecule?
Answer: The GI50 was 956 nM.

Question: What about the TGI [50] of the same molecule?
Answer: The TGI was > 16800 nM.

Question: And the GI50 [51]?
Answer: Its GI50 is 831 nM.

Question: And the TGI [51]?
Answer: Its TGI is > 16800 nM.

Question: What about the GI50 [52] of the same molecule?
Answer: Its GI50 is 809 nM.

Question: And the TGI [52]?
Answer: The TGI was > 16800 nM.

Question: And the GI50 [53]?
Answer: The GI50 was 1420 nM.

Question: What about the TGI [53] of the same molecule?
Answer: Its TGI is > 16800 nM.

Question: And the GI50 [54]?
Answer: The GI50 was 786 nM.

Question: What about the TGI [54] of the same molecule?
Answer: The TGI was > 16800 nM.

Question: What about the GI50 [55] of the same molecule?
Answer: The GI50 was 5000 nM.

Question: And the TGI [55]?
Answer: The TGI was > 16800 nM.

Source: PubChem BioAssay (NCI)
